From the PolyMetriX glass transition set come the findings set out here.

± gives the standard deviation of the reports.

Molecule `*/C=C/C(C)C(*)C(=O)OC` (repeat unit) yielded a glass transition temperature of 53.00 °C.

`*/C=C/C(C*)OC` (repeat unit) had a glass transition temperature of -10.50 °C.

Regarding `*/C=C/C1CC(*)C(C#N)(C[Si](C)(C)O[Si](C)(C)C)C1` (repeat unit), the glass transition temperature turned out to be 68.00 °C.

`*/C=C/C1CC(*)C(C#N)([Si](C)(C)O[Si](C)(C)C)C1` (repeat unit) had a glass transition temperature of 88.00 °C.

As for `*/C=C/C1CC(*)C(C#N)([Si](C)(C)[Si](C)(C)C)C1` (repeat unit), the glass transition temperature was found to be 120.00 °C.

Take `*/C=C/C1CC(*)C(C(=O)OC)C1` (repeat unit): the glass transition temperature turned out to be 65.00 °C.

Molecule `*/C=C/C1CC(*)C(C(=O)OCCNC(C)(C)C)C1` (repeat unit) registered a glass transition temperature of 29.00 °C.

In the case of `*/C=C/C1CC(*)C(C(=O)Oc2ccccc2)C1` (repeat unit), the glass transition temperature was 72.60 °C.

On to `*/C=C/C1CC(*)C(C2CC=CCC2)C1` (repeat unit), for which the glass transition temperature was determined as 105.00 °C.

Turning to `*/C=C/C1CC(*)C([Si](C)(C)C[Si](C)(C)C)C1` (repeat unit), the glass transition temperature amounted to 24.00 °C.

Molecule `*/C=C/C1CC(*)C2C(=O)N(CCC)C(=O)C12` (repeat unit) returned a glass transition temperature of 139.00 °C.

Molecule `*/C=C/C1CC(*)C2C(=O)N(CCCCCCC)C(=O)C12` (repeat unit) had a glass transition temperature of 59.00 °C.

`*/C=C/C1CC(*)C2C(=O)N(CCCCCCCCCCCC)C(=O)C12` (repeat unit) had a glass transition temperature of 50.00 °C.

For the molecule `*/C=C/C1CC(*)C2C(=O)N(c3ccccc3C)C(=O)C12` (repeat unit), the glass transition temperature is 248.00 °C.

`*/C=C/C1CC(*)C2CC=CC12` (repeat unit): the glass transition temperature is 53.00 °C.

`*/C=C/c1cc(OCC(CC)CCCC)c(*)cc1-c1ccc(N(c2ccc(OC)cc2)c2ccc(OC)cc2)cc1` (repeat unit): the glass transition temperature amounted to 163.00 °C.

As to `*/C=C/c1cc(OCCCCCC)c(*)cc1OC` (repeat unit), the glass transition temperature was 60.00 °C.

As to `*/C=C/c1ccc(/C=C/[Si](C)(C)c2ccc([Si](*)(C)C)cc2)cc1` (repeat unit), the glass transition temperature amounted to 63.00 °C.

In turn, `*/C=C/c1ccc(/C=C/[Si](C)(CCC(F)(F)F)c2cccc([Si](*)(C)CCC(F)(F)F)c2)cc1` (repeat unit) gave a glass transition temperature of 23.40 °C.

In turn, `*/C=C/c1sc(-c2ccc(-c3ccc(-c4ccc(-c5sc(/C=C/C6=CC(=C(C#N)C#N)C=C(*)O6)c(CCCCCC)c5CCCCCC)s4)s3)s2)c(CCCCCC)c1CCCCCC` (repeat unit) registered a glass transition temperature of 134.00 °C.

Regarding `*/C=C/c1sc(-c2ccc(-c3sc(/C=C/C4=CC(=C(C#N)C#N)C=C(*)O4)c(CCCCCC)c3CCCCCC)s2)c(CCCCCC)c1CCCCCC` (repeat unit), the glass transition temperature was 114.00 °C.

Turning to `*C/C=C/C(C)S(*)(=O)=O` (repeat unit), the glass transition temperature amounted to 71.00 °C.

Consider `*CCCCCCCCOc1c(OC)cc(/C=C/c2cc(C(C)C)c(/C=C/c3cc(OC)c(O*)c(OC)c3)cc2C(C)C)cc1OC` (repeat unit), for which the glass transition temperature worked out at 85.00 °C.

With `*CCN(CCOC(=O)/C=C/c1ccc(/C=C/C(=O)O*)cc1)c1ccc(/N=N/c2ccc([N+](=O)[O-])cc2)cc1` (repeat unit), the glass transition temperature was 120.00 °C.

Consider `*Oc1ccc(-c2ccc(OC(=O)/C=C/c3ccc(/C=C/C(*)=O)cc3)cc2)cc1` (repeat unit), for which the glass transition temperature amounted to 243.00 °C.

Consider `*c1ccc2c(c1)Sc1cc(-c3sc(/C=C/C4=CC(=C(C#N)C#N)C=C(/C=C/c5sc(*)c(CCCCCC)c5CCCCCC)O4)c(CCCCCC)c3CCCCCC)ccc1N2CCCCCC` (repeat unit), for which the glass transition temperature worked out at 130.00 °C.

`*/C=C/CC*` (repeat unit) [1,4-polybutadiene]: the glass transition temperature is -91.00 ± 5 °C.

Turning to `*C(F)(F)C1(F)C(F)(F)C(*)(F)C(F)(F)C1(F)F` (repeat unit) [Perfluoropolymer 3], the glass transition temperature came out at 117 ± 0.6 °C.

Take `*c1ccc(*)cc1` (repeat unit) [Poly(1,4-phenylene)]: the glass transition temperature came out at 278.18 ± 19 °C.

The molecule `*CC(*)(C)C(=O)OCC` (repeat unit) [Poly(1-(Diethylamino)ethyl methacrylate)] yielded a glass transition temperature of 20 ± 27 °C.

`*/C=C/CCC*` (repeat unit) [Poly(1-pentenylene)]: the glass transition temperature is -100.08 ± 7 °C.

As to `*CC(*)c1ccc(Cl)cc1Cl` (repeat unit) [Poly(2,4-dichloro styrene) ], the glass transition temperature is 133 ± 2.6 °C.

Consider `*CC(*)c1ccc(C)cc1C` (repeat unit) [Poly(2,4-dimethyl styrene) ], for which the glass transition temperature turned out to be 112 ± 0.6 °C.

The molecule `*CC(*)c1ccccc1Cl` (repeat unit) [Poly(2-chlorostyrene)] showed a glass transition temperature of 118.92 ± 2.1 °C.

`*CC(*)(C)C(=O)OCCO` (repeat unit) [Poly(2-hydroxyethyl methacrylate)] returned a glass transition temperature of 84.03 ± 10 °C.

In turn, `*CC(*)(C)C(=O)OCC(C)O` (repeat unit) [Poly(2-hydroxypropyl methacrylate)] yielded a glass transition temperature of 75.4 ± 1.9 °C.

Turning to `*CC(*)(C)CC` (repeat unit) [Poly(2-methylbutene)], the glass transition temperature was -11.58 ± 9.3 °C.

Turning to `*CC(*)(C)C(=O)OCCc1ccccc1` (repeat unit) [Poly(2-phenylethyl methacrylate)], the glass transition temperature stood at 37.42 ± 16 °C.

`*CC(*)c1ccc(C)c(C)c1` (repeat unit) [Poly(3,4-dimethyl styrene) ] yielded a glass transition temperature of 111 ± 2.4 °C.

`*CC(*)c1ccc(F)cc1` (repeat unit) [Poly(4-fluorostyrene)] displayed a glass transition temperature of 104 ± 4.9 °C.

Consider `*CC(*)c1ccc(C(=O)c2ccc(C)cc2)cc1` (repeat unit) [Poly(4-p-toluoylstyrene)], for which the glass transition temperature came to 98.92 ± 0.1 °C.

The molecule `*CC(*)C(=O)Nc1ccccc1` (repeat unit) [Poly(N-phenyl acrylamide)] gave a glass transition temperature of 155.92 ± 5.8 °C.

The molecule `*CC(*)n1c2ccccc2c2ccccc21` (repeat unit) [Poly(N-vinyl carbazole)] came in with a glass transition temperature of 150 ± 44 °C.

Regarding `*CC(*)C(N)=O` (repeat unit) [Poly(acrylamide)], the glass transition temperature was 178.92 ± 20 °C.

Molecule `*CC(*)C(=O)O` (repeat unit) [Poly(acrylic acid)] gave a glass transition temperature of 105 ± 7.3 °C.

Turning to `*CCCCOC(=O)c1ccc(C(=O)O*)cc1` (repeat unit) [Poly(butylene terephthalate)], the glass transition temperature came to 44.12 ± 6 °C.

The molecule `*CC(*)C(=O)OC1CCCCC1` (repeat unit) [Poly(cyclohexyl acrylate)] came in with a glass transition temperature of 20.42 ± 6.5 °C.

`*CCCCCCCCCC(=O)N*` (repeat unit) [Poly(decano-10-lactam)] had a glass transition temperature of 42.42 ± 0.8 °C.

As to `*CC(CCl)O*` (repeat unit) [Poly(epichlorohydrin)], the glass transition temperature is -22.22 ± 1.5 °C.

`*CC(*)(Cl)C(=O)OCC` (repeat unit) [Poly(ethyl a-chloroacrylate) ] returned a glass transition temperature of 92 ± 4.8 °C.

For the molecule `*CC(*)OCC` (repeat unit) [Poly(ethyl vinyl ether)], the glass transition temperature was -26.58 ± 9.8 °C.

On to `*CCOC(=O)CCC(=O)O*` (repeat unit) [Poly(ethylene succinate)], for which the glass transition temperature was -8.63 ± 3.5 °C.

Take `*CC(*)CCCCCCC` (repeat unit) [Poly(heptylethylene)]: the glass transition temperature was -47.58 ± 0.8 °C.

`*CCCCCCNC(=O)CCCCC(=O)N*` (repeat unit) [Poly(hexamethylene adipamide)]: the glass transition temperature worked out at 54.53 ± 5.2 °C.

Consider `*CCCCCCNC(=O)CCCCCCCC(=O)N*` (repeat unit) [Poly(hexamethylene azelamide)], for which the glass transition temperature stood at 50.58 ± 12 °C.

Turning to `*CCCCCCNC(=O)c1cccc(C(=O)N*)c1` (repeat unit) [Poly(hexamethylene isophthalamide) ], the glass transition temperature was 129 ± 5.4 °C.

Molecule `*CCCCCCNC(=O)CCCCCCCCC(=O)N*` (repeat unit) [Poly(hexamethylene sebacamide) ] gave a glass transition temperature of 40 ± 4.1 °C.

On to `*CC(*)(C#N)C(=O)OCCCCCC` (repeat unit) [Poly(hexyl cyanoacrylate)], for which the glass transition temperature was determined as 85.92 ± 0.1 °C.

Molecule `*CC(*)OCCCCCC` (repeat unit) [Poly(hexyl vinyl ether)] came in with a glass transition temperature of -69.58 ± 5.8 °C.

`*CCCCCCNC(=O)CCCCCCCCCCC(=O)N*` (repeat unit) [Poly(iminohexamethyleneiminododecanedioyl)]: the glass transition temperature came out at 45.92 ± 0.1 °C.

The molecule `*CC(*)(C)C` (repeat unit) [Poly(isobutene)] came in with a glass transition temperature of -74 ± 3.6 °C.

With `*CC(*)C(=O)OC` (repeat unit) [Poly(methyl acrylate) ], the glass transition temperature came out at 9 ± 2 °C.

`*CC(*)OC` (repeat unit) [Poly(methyl vinyl ether)] had a glass transition temperature of -26.97 ± 3.8 °C.

`*CC(*)C(=O)OCCCCCCCCC` (repeat unit) [Poly(n-nonyl acrylate) ]: the glass transition temperature was -60 ± 17 °C.

Consider `*CC(*)C(=O)OCCCCCCCC` (repeat unit) [Poly(n-octyl acrylate) ], for which the glass transition temperature was -65 ± 0.6 °C.

Molecule `*CC(*)C(=O)OCCCCCCCCCCCCCCCCCC` (repeat unit) [Poly(octadecyl acrylate)] showed a glass transition temperature of -2.33 ± 57 °C.

In turn, `*CC(*)c1ccc(C(=O)OC)cc1` (repeat unit) [Poly(p-methoxycarbonyl styrene) ] displayed a glass transition temperature of 113 ± 5.6 °C.

As for `*OC(C)COC(*)=O` (repeat unit) [Poly(propylene carbonate)], the glass transition temperature turned out to be 35.73 ± 1.6 °C.

As for `*CC(*)CCC` (repeat unit) [Poly(propylethylene)], the glass transition temperature is -35 ± 46 °C.
